± gives the standard deviation of the averaged measurements.
Legend:
Assay in all cases: level (log10 ratio to DMSO vehicle control); higher = higher biomarker level / cell amount than vehicle control
Details in all cases: in DMSO
[1] = compound: FC(F)(F)C(F)(F)C(F)(F)C(F)(F)C(F)(F)C(F)(F)C(F)(F)CCI [1-Iodo-1H,1H,2H,2H-perfluorononane]
Experimental: (§1)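 BioMAP Diversity Plus panel of 12 human primary cell co-culture systems (3C, 4H, LPS, SAg, BT, BF4T, BE3C, CASM3C, HDF3CGF, KF3CT, MyoF, Mphg). Compounds were added 1 h before stimulation and left for 24 h (MyoF 48 h; BT 72 h for soluble read-outs or 6 d for IgG). Biomarkers were read by ELISA, cytotoxicity by SRB, PBMC viability and proliferation by Alamar Blue. Each well value was divided by the mean of 8 DMSO control wells on the same plate and log10 transformed; duplicate blinded samples were tested at 4 concentrations.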

1-(Perfluorohexyl)octane = compound: CCCCCCCCC(F)(F)C(F)(F)C(F)(F)C(F)(F)C(F)(F)C(F)(F)F [1-(Perfluorohexyl)octane]
Experimental: as §1

[2] = compound: O=C(O)CCC(F)(F)C(F)(F)C(F)(F)F [3:3 Fluorotelomer carboxylic acid]
Experimental: as §1

Test System	level (log10) ([1]; 6700 nM)	level (log10) ([1]; 20000 nM)	level (log10) (1-(Perfluorohexyl)octane; 6700 nM)	level (log10) (1-(Perfluorohexyl)octane; 20000 nM)	level (log10) ([2]; 6700 nM)	level (log10) ([2]; 20000 nM)	level (log10) ([2]; 60000 nM)
LPS:IL-1alpha	-0.008 ± 0.041	0.031 ± 0.016	-0.0215 ± 0.016	0.001 ± 0.0057	-0.005 ± 0.0071	-0.0245 ± 0.0078	-0.0095 ± 0.029
4H:CCL2/MCP-1	-0.0175 ± 0.019	0.0395 ± 0.1	-0.0525 ± 0.019	-0.0495 ± 0.021	-0.032 ± 0.048	-0.0525 ± 0.012	0.007 ± 0.013
LPS:CD69	-0.0145 ± 0.026	-0.0065 ± 0.063	-0.012 ± 0.061	0.007 ± 0.038	-0.0345 ± 0.09	-0.016 ± 0.052	-0.0435 ± 0.061
BT:sIL-17F	0.062 ± 0.023	0.0585 ± 0.011	0.083 ± 0.033	0.089 ± 0.0071	-0.003 ± 0.081	0.035 ± 0.081	0.059 ± 0.048
BT:PBMC Cytotoxicity	0.0115 ± 0.0035	0.0115 ± 0.011	0 ± 0.013	0.0225 ± 0.0021	0.0035 ± 0.0064	0.012 ± 0.017	0.018 ± 0.014
SAg:CCL2/MCP-1	-0.0145 ± 0.0078	-0.0025 ± 0.049	-0.01	0.0015 ± 0.018	0.005 ± 0.0014	-0.0145 ± 0.016	0.0145 ± 0.028
BE3C:CXCL10/IP-10	0 ± 0.016	0.0025 ± 0.011	0.0055 ± 0.013	-0.0025 ± 0.012	-0.0015 ± 0.005	0.0045 ± 0.015	0.013 ± 0.0099
LPS:M-CSF	-0.003 ± 0.028	-0.0015 ± 0.093	-0.0065 ± 0.021	0.0235 ± 0.037	-0.0335 ± 0.052	-0.0095 ± 0.016	0.0215 ± 0.033
LPS:sPGE2	-0.0095 ± 0.0021	-0.03 ± 0.017	0.011 ± 0.018	0.02 ± 0.0042	-0.0115 ± 0.0092	-0.0165 ± 0.036	0.0205 ± 0.025
4H:SRB	0.0165 ± 0.0092	0.024 ± 0.024	0.0035 ± 0.019	-0.002 ± 0.0042	-0.0125 ± 0.022	-0.003 ± 0.013	-0.0185 ± 0.012
BF4T:CD106/VCAM-1	-0.027 ± 0.0085	-0.061 ± 0.014	0.005 ± 0.051	-0.0025 ± 0.035	-0.012 ± 0.041	0.0075 ± 0.0078	0.0205 ± 0.018
BF4T:MMP-9	0.007 ± 0.044	-0.0065 ± 0.028	-0.014 ± 0.02	0.005 ± 0.025	0.0165 ± 0.07	0.002 ± 0.065	0.0285 ± 0.046
BF4T:SRB	-0.001 ± 0.0042	0.001 ± 0.0042	-0.0045 ± 0.0035	-0.0035 ± 0.0035	-0.008 ± 0.0057	-0.0105 ± 0.0035	0 ± 0.0014
LPS:CD40	-0.0105 ± 0.019	0.034 ± 0.025	-0.0355 ± 0.079	-0.0205 ± 0.049	-0.0035 ± 0.021	0.027 ± 0.028	-0.014 ± 0.051
4H:CCL26/Eotaxin-3	0.018 ± 0.0057	-0.004 ± 0.028	-0.0025 ± 0.0021	0.004 ± 0.021	-0.005 ± 0.0071	-0.004	-0.0225 ± 0.043
LPS:CD106/VCAM-1	0.002 ± 0.011	-0.0155 ± 0.039	0.001 ± 0.0057	0.017 ± 0.0085	-0.0155 ± 0.0078	0.011 ± 0.0028	-0.0145 ± 0.029
LPS:SRB	0.0125 ± 0.0064	0.019 ± 0.017	0.0035 ± 0.0078	0.0035 ± 0.011	-0.008 ± 0.0014	-0.0025 ± 0.0064	0.0065 ± 0.0064

Test System	level (log10) ([1]; 6700 nM)	level (log10) ([1]; 20000 nM)	level (log10) (1-(Perfluorohexyl)octane; 6700 nM)	level (log10) (1-(Perfluorohexyl)octane; 20000 nM)	level (log10) ([2]; 6700 nM)	level (log10) ([2]; 20000 nM)	level (log10) ([2]; 60000 nM)
3C:CXCL9/MIG	0.002 ± 0.0042	0.007 ± 0.013	0.009 ± 0.023	0.017 ± 0.016	0.0045 ± 0.0021	-0.001 ± 0.0028	0.001 ± 0.0014
BT:sIL-17A	0.0035 ± 0.1	-0.0305 ± 0.15	0.06 ± 0.018	0.0085 ± 0.12	0.021 ± 0.11	-0.049 ± 0.13	-0.0765 ± 0.26
4H:CD87/uPAR	0.0135 ± 0.00071	0.0025 ± 0.026	0.027 ± 0.027	0.0155 ± 0.015	0.001 ± 0.027	-0.014 ± 0.0071	-0.045 ± 0.011
4H:VEGFR2	-0.0015 ± 0.026	0.0225 ± 0.06	0.0045 ± 0.022	0.0245 ± 0.0021	-0.0045 ± 0.0078	-0.0135 ± 0.011	0.0075 ± 0.063
BT:B cell Proliferation	0.0135 ± 0.029	0.0045 ± 0.015	0.0145 ± 0.011	0.012 ± 0.011	-0.018 ± 0.0085	-0.0115 ± 0.042	-0.011 ± 0.02
4H:CD106/VCAM-1	-0.003 ± 0.027	-0.0585 ± 0.083	0.011 ± 0.04	-0.005	-0.009 ± 0.0028	-0.014 ± 0.014	-0.0165 ± 0.013
BF4T:CD90	-0.0245 ± 0.021	-0.0345 ± 0.0021	-0.004 ± 0.0028	-0.013 ± 0.0071	-0.0025 ± 0.005	-0.009 ± 0.0014	-0.0085 ± 0.013
LPS:CD142/Tissue Factor	0.046 ± 0.073	-0.0215 ± 0.09	-0.006 ± 0.088	0.003 ± 0.083	-0.014 ± 0.0014	-0.014 ± 0.011	-0.0015 ± 0.019
SAg:CD69	-0.011 ± 0.017	-0.0015 ± 0.018	-0.0045 ± 0.011	-0.0045 ± 0.028	0.001 ± 0.04	-0.005 ± 0.023	-0.021 ± 0.0057
LPS:CD141/Thrombomodulin	-0.0265 ± 0.0021	-0.024 ± 0.0057	-0.0215 ± 0.0021	0.0025 ± 0.023	-0.0175 ± 0.022	-0.001 ± 0.013	0.0035 ± 0.036
BE3C:IL-1alpha	-0.0075 ± 0.0078	0.0075 ± 0.026	0.001 ± 0.02	0.0415 ± 0.044	0.0135 ± 0.037	0.0255 ± 0.039	0.0155 ± 0.035
SAg:Proliferation	-0.0025 ± 0.063	-0.0055 ± 0.074	0.0125 ± 0.04	0.0675 ± 0.03	-0.021 ± 0.013	0.0205 ± 0.053	-0.006 ± 0.0085
BF4T:IL-1alpha	-0.011 ± 0.0042	0.033 ± 0.031	-0.017 ± 0.018	0.012 ± 0.02	-0.0035 ± 0.019	-0.009 ± 0.02	0.003
BF4T:tPA	0.0185 ± 0.0064	-0.0135 ± 0.0064	0.0075 ± 0.013	0.026 ± 0.0057	0.004 ± 0.031	-0.0005 ± 0.015	0.015 ± 0.0099
BE3C:CXCL9/MIG	-0.0085 ± 0.0035	-0.0015 ± 0.0092	0.0055 ± 0.0035	0.0015 ± 0.0021	0.006 ± 0.0099	0.0055 ± 0.00071	0.01 ± 0.0014
LPS:CXCL8/IL-8	0.005 ± 0.072	-0.001 ± 0.082	0.0335 ± 0.00071	0.0405 ± 0.026	0.004 ± 0.0042	-0.0105 ± 0.0021	0.0165 ± 0.03
BE3C:CD54/ICAM-1	0.0115 ± 0.005	-0.009 ± 0.016	0.0045 ± 0.011	-0.0025 ± 0.0021	-0.009 ± 0.0042	0.017 ± 0.02	0.002 ± 0.0057

Reference: the supplement of paper PMC10331698
